In this experiment the target is T1, RXFP1 (Homo sapiens, UniProt Q9HBX9).
T1 construct: OVCAR5 cells expressing endogenous RXFP1; endogenous in cells; host or cells: OVCAR5
T1 sequence (Q9HBX9 1-757): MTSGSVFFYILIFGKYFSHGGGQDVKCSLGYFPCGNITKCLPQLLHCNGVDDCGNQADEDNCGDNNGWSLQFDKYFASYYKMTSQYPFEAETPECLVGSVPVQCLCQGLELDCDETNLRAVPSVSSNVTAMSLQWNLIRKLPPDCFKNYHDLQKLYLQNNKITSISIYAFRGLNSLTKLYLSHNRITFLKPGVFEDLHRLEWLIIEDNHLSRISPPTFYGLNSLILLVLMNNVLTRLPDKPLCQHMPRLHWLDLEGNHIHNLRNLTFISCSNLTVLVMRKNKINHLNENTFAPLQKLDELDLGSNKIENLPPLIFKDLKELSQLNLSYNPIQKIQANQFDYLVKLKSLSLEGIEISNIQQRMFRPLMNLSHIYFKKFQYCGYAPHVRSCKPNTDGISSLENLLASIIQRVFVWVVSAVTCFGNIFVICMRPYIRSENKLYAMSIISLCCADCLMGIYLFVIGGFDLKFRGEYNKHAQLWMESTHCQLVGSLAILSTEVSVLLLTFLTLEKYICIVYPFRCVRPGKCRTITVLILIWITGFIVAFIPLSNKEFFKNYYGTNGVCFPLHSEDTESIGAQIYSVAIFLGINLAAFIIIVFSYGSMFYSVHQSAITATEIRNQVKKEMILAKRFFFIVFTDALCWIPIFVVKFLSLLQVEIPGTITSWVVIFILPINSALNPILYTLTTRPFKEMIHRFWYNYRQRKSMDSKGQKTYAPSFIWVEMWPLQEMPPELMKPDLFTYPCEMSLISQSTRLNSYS
Nature of the experiment: OVCAR5 cAMP assay (HTRF). Type of experiment: cell-based. Conditions: for EC50: OVCAR 5 cells expressing endogenous RXFP1, cAMP readout; for Emax: OVCAR 5 cells, maximal cAMP relative to H2-relaxin. The gist of the method:
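Peptide agonism measured as intracellular cAMP (HTRF) after 30 min at 37° C in serum-free medium, following 40 min 1 mM IBMX preincubation of OVCAR5 cells. Nonlinear regression gave EC50; Emax % = 100 × compound maximal cAMP / H2-relaxin maximal cAMP.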
In general terms: Changes in cAMP serve as a functional read-out for many G protein-coupled receptors.

Starred links: 1 amine or outer side, 2 acyl side, 3 side chain; linkers in the order of their positions; H or OH if unused. Non-standard residues stand in square brackets, D forms with d. Residues, ends and D or L forms follow the SMILES beside them. Groups on a side chain read outwards from the residue. *: point of attachment. X16 = CCCCCCCCCCCCCCCCCC(=O)N[C@@H](CCC(=O)N[C@@H](CCC(=O)N[C@@H](CCC(=O)NCCCOCCOCCOCCCNC(=O)CCC(=O)NCCCOCCOCCOCCCNC(=O)CCC(=O)NCCCOCCOCCOCCCNC(=O)CCC(=O)NCCCOCCOCCOCCCN*)C(=O)O)C(=O)O)C(=O)O; X11 = CCCCCCCCCCCCCCCCCC(=O)N[C@@H](CCC(=O)N[C@@H](CCC(=O)N[C@@H](CCC(=O)N[C@@H](CCC(=O)NCCCOCCOCCOCCCNC(=O)CCC(=O)NCCCOCCOCCOCCCNC(=O)CCC(=O)NCCCOCCOCCOCCCN*)C(=O)O)C(=O)O)C(=O)O)C(=O)O; X3 = CCCCCCCCCCCCCCCCCC(=O)N[C@@H](CCC(=O)N[C@@H](CCC(=O)N[C@@H](CCC(=O)NCCCOCCOCCOCCCNC(=O)CCC(=O)NCCCOCCOCCOCCCNC(=O)CCC(=O)NCCCOCCOCCOCCCN*)C(=O)O)C(=O)O)C(=O)O; X1 = CCCCCCCCCCCCCCCC(=O)N[C@@H](CCC(=O)N[C@@H](CCC(=O)N[C@@H](CCC(=O)NCCCOCCOCCOCCCNC(=O)CCC(=O)NCCCOCCOCCOCCCNC(=O)CCC(=O)NCCCOCCOCCOCCCN*)C(=O)O)C(=O)O)C(=O)O; X14 = CCCCCCCCCCCCCCCCCC(=O)N[C@@H](CCC(=O)N[C@@H](CCC(=O)N[C@@H](CCC(=O)N[C@@H](CCC(=O)NCCCOCCOCCOCCCNC(=O)CCC(=O)NCCCOCCOCCOCCCN*)C(=O)O)C(=O)O)C(=O)O)C(=O)O; Cit = NC(=O)NCCC[C@H](N)C(=O)O; Suc = O=C(CCC(=O)[*:2])[*:1]; αMeK = C[C@](N)(CCCCN)C(=O)O; hLys = NCCCCC[C@H](N)C(=O)O; Aib = CC(C)(N)C(=O)O

Drawing on patent US11725036B2, “Modified lipidated relaxin B chain peptides and their therapeutic use” (Sanofi, priority 2018, dated 2023), this text covers EC50 and Emax for six molecules.

For `CCCCCCCCCCCCCCCC(=O)N[C@@H](CCC(=O)N[C@@H](CCC(=O)N[C@@H](CCC(=O)NCCCOCCOCCOCCCNC(=O)CCC(=O)NCCCOCCOCCOCCCNC(=O)CCC(=O)NCCCOCCOCCOCCCNC(=O)CCC(=O)NCCCC[C@H](NC(=O)CNC(=O)[C@H](CCC(=O)O)NC(=O)C(C)(C)NC(=O)C(C)(C)NC(=O)[C@@H](NC(=O)[C@H](CCCCNC(C)=O)NC(=O)[C@H](C)NC(=O)[C@H](CCCNC(=N)N)NC(=O)[C@@H](NC(=O)[C@H](CCCCN)NC(=O)[C@H](CCC(=O)O)NC(=O)[C@H](CCCNC(=N)N)NC(=O)CNC(=O)[C@H](CCC(=O)O)NC(=O)[C@H](CC(C)C)NC(C)=O)C(C)C)[C@@H](C)CC)C(=O)N[C@@H](CO)C(=O)N[C@H](C(=O)N[C@@H](Cc1ccccc1)C(=O)N[C@@H](CO)C(=O)N[C@@](C)(CCCCN)C(=O)N[C@@H](CCCNC(=N)N)C(=O)N[C@@H](C)C(=O)N[C@@H](CCCCN)C(N)=O)[C@@H](C)O)C(=O)O)C(=O)O)C(=O)O` [compound 49] (Ac-LEGREKVRAK(Ac)I[Aib][Aib]EGK([Suc-X1])STFS[αMeK]RAK-NH2), the response was half-maximal at 0.19 nM (EC50) and the Emax was found to be 97%.
In turn, `CCCCCCCCCCCCCCCCCC(=O)N[C@@H](CCC(=O)N[C@@H](CCC(=O)N[C@@H](CCC(=O)N[C@@H](CCC(=O)NCCCOCCOCCOCCCNC(=O)CCC(=O)NCCCOCCOCCOCCCNC(=O)CCC(=O)NCCCOCCOCCOCCCNC(=O)CCC(=O)NCCCC[C@H](NC(=O)CNC(=O)[C@H](CCC(=O)O)NC(=O)C(C)(C)NC(=O)C(C)(C)NC(=O)[C@@H](NC(=O)[C@H](CCCCNC(C)=O)NC(=O)[C@H](C)NC(=O)[C@H](CCCNC(=N)N)NC(=O)[C@@H](NC(=O)[C@H](CCCCN)NC(=O)[C@H](CCC(=O)O)NC(=O)[C@H](CCCNC(=N)N)NC(=O)CNC(=O)[C@H](CCC(=O)O)NC(=O)[C@H](CC(C)C)NC(C)=O)C(C)C)[C@@H](C)CC)C(=O)N[C@@H](CO)C(=O)N[C@H](C(=O)N[C@@H](Cc1c[nH]c2ccccc12)C(=O)N[C@@H](CO)C(=O)NC(C)(C)C(=O)N[C@@H](CCCNC(=N)N)C(=O)N[C@@H](CCCCN)C(=O)N[C@@H](CCCCNC(C)=O)C(N)=O)[C@@H](C)O)C(=O)O)C(=O)O)C(=O)O)C(=O)O` [compound 51] (Ac-LEGREKVRAK(Ac)I[Aib][Aib]EGK([Suc-X11])STWS[Aib]RKK(Ac)-NH2) yielded an EC50 of 0.1 nM and an Emax of 98%.
For `CCCCCCCCCCCCCCCCCC(=O)N[C@@H](CCC(=O)N[C@@H](CCC(=O)N[C@@H](CCC(=O)N[C@@H](CCC(=O)NCCCOCCOCCOCCCNC(=O)CCC(=O)NCCCOCCOCCOCCCNC(=O)CCC(=O)NCCCC[C@H](NC(=O)CNC(=O)[C@H](CCC(=O)O)NC(=O)C(C)(C)NC(=O)C(C)(C)NC(=O)[C@@H](NC(=O)[C@H](CCCCNC(C)=O)NC(=O)[C@H](C)NC(=O)[C@H](CCCNC(=N)N)NC(=O)[C@@H](NC(=O)[C@H](CCCCN)NC(=O)[C@H](CCC(=O)O)NC(=O)[C@H](CCCNC(=N)N)NC(=O)CNC(=O)[C@H](CCC(=O)O)NC(=O)[C@H](CC(C)C)NC(C)=O)C(C)C)[C@@H](C)CC)C(=O)N[C@@H](CO)C(=O)N[C@H](C(=O)N[C@@H](Cc1c[nH]c2ccccc12)C(=O)N[C@@H](CO)C(=O)NC(C)(C)C(=O)N[C@@H](CCCNC(=N)N)C(=O)N[C@@H](CCCCN)C(=O)N[C@@H](CCCCNC(C)=O)C(N)=O)[C@@H](C)O)C(=O)O)C(=O)O)C(=O)O)C(=O)O` [compound 54] (Ac-LEGREKVRAK(Ac)I[Aib][Aib]EGK([Suc-X14])STWS[Aib]RKK(Ac)-NH2), the EC50 amounted to 0.16 nM and the Emax was 96%.
In the case of `CCCCCCCCCCCCCCCCCC(=O)N[C@@H](CCC(=O)N[C@@H](CCC(=O)N[C@@H](CCC(=O)NCCCOCCOCCOCCCNC(=O)CCC(=O)NCCCOCCOCCOCCCNC(=O)CCC(=O)NCCCOCCOCCOCCCNC(=O)CCC(=O)NCCCC[C@H](NC(=O)CNC(=O)[C@H](CCC(=O)O)NC(=O)C(C)(C)NC(=O)C(C)(C)NC(=O)[C@@H](NC(=O)[C@H](CCCNC(N)=O)NC(=O)[C@H](C)NC(=O)[C@H](CCCNC(=N)N)NC(=O)[C@@H](NC(=O)[C@H](CCCCN)NC(=O)[C@H](CCC(=O)O)NC(=O)[C@H](CCCNC(=N)N)NC(=O)CNC(=O)[C@H](CCC(=O)O)NC(=O)[C@H](CC(C)C)NC(C)=O)C(C)C)[C@@H](C)CC)C(=O)N[C@@H](CO)C(=O)N[C@H](C(=O)N[C@@H](Cc1ccccc1)C(=O)N[C@@H](CO)C(=O)N[C@@](C)(CCCCN)C(=O)N[C@@H](CCCNC(=N)N)C(=O)N[C@@H](C)C(=O)N[C@@H](CCCCNC(C)=O)C(N)=O)[C@@H](C)O)C(=O)O)C(=O)O)C(=O)O` [compound 56] (Ac-LEGREKVRA[Cit]I[Aib][Aib]EGK([Suc-X3])STFS[αMeK]RAK(Ac)-NH2), a half-maximal response (EC50) required 0.15 nM and the Emax was determined as 91%.
Take `CCCCCCCCCCCCCCCC(=O)N[C@@H](CCC(=O)N[C@@H](CCC(=O)N[C@@H](CCC(=O)NCCCOCCOCCOCCCNC(=O)CCC(=O)NCCCOCCOCCOCCCNC(=O)CCC(=O)NCCCOCCOCCOCCCNC(=O)CCC(=O)NCCCC[C@H](NC(=O)CNC(=O)[C@H](CCC(=O)O)NC(=O)C(C)(C)NC(=O)C(C)(C)NC(=O)[C@@H](NC(=O)[C@H](CCCCNC(C)=O)NC(=O)[C@H](C)NC(=O)[C@H](CCCNC(=N)N)NC(=O)[C@@H](NC(=O)[C@H](CCCCN)NC(=O)[C@H](CCC(=O)O)NC(=O)[C@H](CCCNC(=N)N)NC(=O)CNC(=O)[C@H](CCC(=O)O)NC(=O)[C@H](CC(C)C)NC(C)=O)C(C)C)[C@@H](C)CC)C(=O)N[C@@H](CO)C(=O)N[C@H](C(=O)N[C@@H](Cc1c[nH]c2ccccc12)C(=O)N[C@@H](CO)C(=O)N[C@@H](CCCCCN)C(=O)N[C@@H](CCCNC(=N)N)C(=O)N[C@@H](C)C(=O)N[C@@H](CCCCNC(C)=O)C(N)=O)[C@@H](C)O)C(=O)O)C(=O)O)C(=O)O` [compound 57] (Ac-LEGREKVRAK(Ac)I[Aib][Aib]EGK([Suc-X1])STWS[hLys]RAK(Ac)-NH2): the EC50 was 0.44 nM and the Emax amounted to 98%.
`CCCCCCCCCCCCCCCCCC(=O)N[C@@H](CCC(=O)N[C@@H](CCC(=O)N[C@@H](CCC(=O)NCCCOCCOCCOCCCNC(=O)CCC(=O)NCCCOCCOCCOCCCNC(=O)CCC(=O)NCCCOCCOCCOCCCNC(=O)CCC(=O)NCCCOCCOCCOCCCNC(=O)CCC(=O)NCCCC[C@H](NC(=O)CNC(=O)[C@H](CCC(=O)O)NC(=O)C(C)(C)NC(=O)C(C)(C)NC(=O)[C@@H](NC(=O)[C@H](CCCCNC(C)=O)NC(=O)[C@H](C)NC(=O)[C@H](CCCNC(=N)N)NC(=O)[C@@H](NC(=O)[C@H](CCCCN)NC(=O)[C@H](CCC(=O)O)NC(=O)[C@H](CCCNC(=N)N)NC(=O)CNC(=O)[C@H](CCC(=O)O)NC(=O)[C@H](CC(C)C)NC(C)=O)C(C)C)[C@@H](C)CC)C(=O)N[C@@H](CO)C(=O)N[C@H](C(=O)N[C@@H](Cc1c[nH]c2ccccc12)C(=O)N[C@@H](CO)C(=O)NC(C)(C)C(=O)N[C@@H](CCCNC(=N)N)C(=O)N[C@@H](CCCCN)C(=O)N[C@@H](CCCCNC(C)=O)C(N)=O)[C@@H](C)O)C(=O)O)C(=O)O)C(=O)O` [compound 58] (Ac-LEGREKVRAK(Ac)I[Aib][Aib]EGK([Suc-X16])STWS[Aib]RKK(Ac)-NH2) registered an Emax of 98%.

One may read the EC50 as the midpoint of the concentration-response curve. Broadly, the Emax is the greatest response seen or fitted, relative to the assay's reference.
